The numbers were not newly measured in patent publication US10332616B2, “Movable type method applied to protein-ligand binding” (University of Florida Research Foundation, Inc., priority 2013, dated 2019), which cites them from elsewhere.

For the first series the following is noted: aqueous solvation free energy, charged compounds (ions).
Turning to `O=C(O)c1ccccc1` [i064, benzoicacid, reference compound], the “Exp. ΔGsolv” value is -71.20 kcal/mol.
Consider `Cc1cccc(N)c1` [i020, 3-methylaniline, reference compound], for which the “Exp. ΔGsolv” value was -69.60 kcal/mol.
`CC(=O)O` [i059, aceticacid, reference compound]: the “Exp. ΔGsolv” value was -77.60 kcal/mol.
Consider `N` [i047, ammonia, reference compound], for which the “Exp. ΔGsolv” value is -85.20 kcal/mol.
`CC(=O)C(=O)O` [i063, pyruvicacid, reference compound]: the “Exp. ΔGsolv” value was -68.50 kcal/mol.
As to `Cc1ccc(N)cc1` [i021, 4-methylaniline, reference compound], the “Exp. ΔGsolv” value was -69.80 kcal/mol.

The same series, now with this note: experimental solvation free energy, neutral compounds test set.
As for `COC(=O)c1ccc(O)cc1` [test2020], the “Exp. ΔGsolv” value was -9.51 kcal/mol.
With `COc1ccc(C(=O)O)cc1` [test3014], the “Exp. ΔGsolv” value was -9.15 kcal/mol.
As to `Cc1cccc(O)c1` [Compound 0056mcr], the “Exp. ΔGsolv” value is -5.49 kcal/mol.
For the compound `COCCN` [Compound 0147met], the “Exp. ΔGsolv” value was -6.55 kcal/mol.
Take `Oc1ccccc1` [Compound 0053phe]: the “Exp. ΔGsolv” value was -6.62 kcal/mol.
Consider `CCCCN(CC)c1c([N+](=O)[O-])cc(C(F)(F)F)cc1[N+](=O)[O-]` [test1011], for which the “Exp. ΔGsolv” value was -3.5 kcal/mol.
On to `CCCCCCCC(=O)OC` [Compound 0238met], for which the “Exp. ΔGsolv” value was -2.04 kcal/mol.
For the compound `CNC` [Compound 0104dim], the “Exp. ΔGsolv” value is -4.29 kcal/mol.
Consider `CCOC(=O)c1ccc(O)cc1` [test2011], for which the “Exp. ΔGsolv” value is -9.2 kcal/mol.
For the compound `CCS` [Compound 0137ethb], the “Exp. ΔGsolv” value was -1.3 kcal/mol.
With `c1ccsc1` [Compound 0245thi], the “Exp. ΔGsolv” value was -1.42 kcal/mol.
In the case of `CCOC(C)OCC` [test0009], the “Exp. ΔGsolv” value was -3.28 kcal/mol.
As for `O=[N+]([O-])c1c(Cl)c(Cl)c(Cl)c(Cl)c1Cl` [test2024], the “Exp. ΔGsolv” value is -5.22 kcal/mol.
With `CCC(=O)Nc1ccc(Cl)c(Cl)c1` [test1048], the “Exp. ΔGsolv” value is -7.8 kcal/mol.
Take `CCOC=O` [Compound 0092ethb]: the “Exp. ΔGsolv” value is -2.65 kcal/mol.
For the compound `COC(=O)c1ccccc1S(=O)(=O)NC(=O)Nc1nc(C)nc(OC)n1` [test1039], the “Exp. ΔGsolv” value was -15.5 kcal/mol.
Regarding `Nc1cnn(-c2ccccc2)c(=O)c1Cl` [test1049], the “Exp. ΔGsolv” value was -16.4 kcal/mol.
Turning to `O=C(O)CCC(=O)c1ccc(-c2ccccc2)cc1` [test3003], the “Exp. ΔGsolv” value was -12.75 kcal/mol.
In the case of `COC(=O)c1ccccc1CS(=O)(=O)NC(=O)Nc1nc(OC)cc(OC)n1` [test1012], the “Exp. ΔGsolv” value was -17.2 kcal/mol.
For `COC(C)=O` [Compound 0093met], the “Exp. ΔGsolv” value was -3.32 kcal/mol.
As for `CCCCCN` [Compound 0113pen], the “Exp. ΔGsolv” value is -4.1 kcal/mol.
`O=c1cc(Cl)[nH]c(=O)[nH]1` [test2006]: the “Exp. ΔGsolv” value is -15.83 kcal/mol.
In the case of `CC(=O)OCC(COC(C)=O)OC(C)=O` [test0001], the “Exp. ΔGsolv” value is -8.84 kcal/mol.
In the case of `O=S1OC[C@@H]2[C@H](CO1)[C@@]1(Cl)C(Cl)=C(Cl)[C@]2(Cl)C1(Cl)Cl` (stereo partly drawn) [test1029], the “Exp. ΔGsolv” value is -4.2 kcal/mol.
Turning to `CC(C)OC(C)C` [Compound 0242dii], the “Exp. ΔGsolv” value was -0.53 kcal/mol.
Regarding `C1CNCCN1` [Compound 0109pip], the “Exp. ΔGsolv” value was -7.4 kcal/mol.
Consider `CCCSP(=O)(OCC)Oc1ccc(Br)cc1Cl` (stereo not drawn) [Compound 0442pho], for which the “Exp. ΔGsolv” value was -4.09 kcal/mol.
As for `CCSSCC` [Compound 0223die], the “Exp. ΔGsolv” value is -1.63 kcal/mol.
Turning to `CCOP(=O)(OCC)O/C(=C\Cl)c1ccc(Cl)cc1Cl` [test1019], the “Exp. ΔGsolv” value was -7.1 kcal/mol.
For the compound `OCC(F)(F)F` [Compound 0207tri], the “Exp. ΔGsolv” value was -4.31 kcal/mol.
For the compound `O=Cc1ccc(O)cc1` [Compound 0151phy], the “Exp. ΔGsolv” value is -10.48 kcal/mol.
Turning to `COC(OC)(OC)C(F)(F)F` [test2029], the “Exp. ΔGsolv” value was -0.8 kcal/mol.
`Nc1ccccc1` [Compound 0118ani]: the “Exp. ΔGsolv” value was -5.49 kcal/mol.
As to `OCCO` [Compound 0046eth], the “Exp. ΔGsolv” value was -9.3 kcal/mol.
Take `COC(=O)c1ccccc1` [Compound 0240met]: the “Exp. ΔGsolv” value is -3.91 kcal/mol.
Take `CN1CCNCC1` [Compound 0112Nme]: the “Exp. ΔGsolv” value was -7.77 kcal/mol.
As for `O=C(O)Cc1ccccc1Nc1c(Cl)cccc1Cl` [test3020], the “Exp. ΔGsolv” value was -6.3 kcal/mol.
Turning to `C=COCC(F)(F)F` [Compound 0214tri], the “Exp. ΔGsolv” value was -0.12 kcal/mol.
As to `CCCCC(=O)OC` [Compound 0098met], the “Exp. ΔGsolv” value is -2.57 kcal/mol.
For the compound `CN(C)C` [Compound 0107tri], the “Exp. ΔGsolv” value was -3.23 kcal/mol.
On to `CCN` [Compound 0103eth], for which the “Exp. ΔGsolv” value is -4.5 kcal/mol.
As for `CCC(C)n1c(=O)[nH]c(C)c(Br)c1=O` (stereo not drawn) [test1013], the “Exp. ΔGsolv” value is -9.7 kcal/mol.
As to `CC(=O)OCCOC(C)=O` [test0013], the “Exp. ΔGsolv” value is -6.34 kcal/mol.
As for `COc1cccc(C(=O)O)c1` [test3015], the “Exp. ΔGsolv” value is -8.93 kcal/mol.
As for `CCN(CC)c1c([N+](=O)[O-])cc(C(F)(F)F)c(N)c1[N+](=O)[O-]` [test1027], the “Exp. ΔGsolv” value is -5.7 kcal/mol.
On to `Nc1c(Cl)c(Cl)nc(C(=O)O)c1Cl` [Compound 0428ami], for which the “Exp. ΔGsolv” value is -11.96 kcal/mol.
Regarding `CN1CCOCC1` [Compound 0227Nme], the “Exp. ΔGsolv” value is -6.34 kcal/mol.
As to `COP(=S)(OC)Oc1ccc([N+](=O)[O-])cc1` [Compound 0441pho], the “Exp. ΔGsolv” value is -7.62 kcal/mol.
As to `COCCO` [Compound 0146met], the “Exp. ΔGsolv” value was -6.77 kcal/mol.
As for `CCCSC(=O)N(CCC)CCC` [test1057], the “Exp. ΔGsolv” value was -4.1 kcal/mol.
As for `CNC(=O)Oc1cccc2ccccc12` [test1015], the “Exp. ΔGsolv” value is -9.5 kcal/mol.
Consider `CC(=O)O` [Compound 0086eth], for which the “Exp. ΔGsolv” value was -6.7 kcal/mol.

The series is the same for the next values; noted with them: experimental solvation free energy; test set with 372 neutral compounds.
Regarding `ClCC(Cl)Cl` [Compound 0166tri], the “Exp. ΔGsolv” value is -1.95 kcal/mol.
On to `Cc1ccccc1[N+](=O)[O-]` [Compound 0135met], for which the “Exp. ΔGsolv” value was -3.59 kcal/mol.
On to `FC(F)Cl` [Compound 0199chl], for which the “Exp. ΔGsolv” value was -0.5 kcal/mol.
Consider `Cc1cccc(C)c1` [Compound 0039mxy], for which the “Exp. ΔGsolv” value was -0.84 kcal/mol.
For `Cc1ccccc1` [Compound 0036tol], the “Exp. ΔGsolv” value was -0.89 kcal/mol.
Turning to `CCCC[N+](=O)[O-]` [Compound 0133nit], the “Exp. ΔGsolv” value was -3.08 kcal/mol.
On to `C` [Compound 0001met], for which the “Exp. ΔGsolv” value is reported as 2 kcal/mol.
`CC(C)(C)C` [Compound 0011dim]: the “Exp. ΔGsolv” value was 2.5 kcal/mol.
On to `Cc1ccccn1` [Compound 0119met], for which the “Exp. ΔGsolv” value was -4.63 kcal/mol.
Turning to `Cc1ccncc1` [Compound 0121met], the “Exp. ΔGsolv” value was -4.94 kcal/mol.
Consider `Cc1cnccn1` [Compound 0117met], for which the “Exp. ΔGsolv” value is -5.57 kcal/mol.
With `FC(F)(F)F` [Compound 0200tet], the “Exp. ΔGsolv” value is recorded as 3.16 kcal/mol.
Regarding `CCCCCCC` [Compound 0007nhe], the “Exp. ΔGsolv” value is 2.62 kcal/mol.
As to `Nc1ccc([N+](=O)[O-])cc1` [test2022], the “Exp. ΔGsolv” value was -9.45 kcal/mol.
Consider `FC(F)(F)Br` [Compound 0197bro], for which the “Exp. ΔGsolv” value is given as 1.79 kcal/mol.
Consider `ClC1=C(Cl)C2(Cl)C3C(Cl)C(Cl)CC3C1(Cl)C2(Cl)Cl` (stereo not drawn) [test1018], for which the “Exp. ΔGsolv” value is -3.4 kcal/mol.
With `CCc1ccccc1` [Compound 0037eth], the “Exp. ΔGsolv” value was -0.8 kcal/mol.
As for `CCCl` [Compound 0163chl], the “Exp. ΔGsolv” value was -0.63 kcal/mol.
For the compound `Cc1nc(N(C)C)nc(OC(=O)N(C)C)c1C` [test1063], the “Exp. ΔGsolv” value is -9.4 kcal/mol.
Consider `C1=CCCC1` [Compound 0026cyc], for which the “Exp. ΔGsolv” value is on record as 0.56 kcal/mol.
In the case of `Cc1ccnc(C)c1` [Compound 0123dim], the “Exp. ΔGsolv” value was -4.86 kcal/mol.
As for `C=CCCC` [Compound 0027pen], the “Exp. ΔGsolv” value is 1.66 kcal/mol.
`ClCCBr` [Compound 0202bro]: the “Exp. ΔGsolv” value is -1.95 kcal/mol.
`O=C1NC(=O)c2ccccc21` [test2025]: the “Exp. ΔGsolv” value was -9.61 kcal/mol.
As for `CCNc1nc(NC(C)(C)C)nc(SC)n1` [test1053], the “Exp. ΔGsolv” value was -6.7 kcal/mol.
As for `CCc1cnccn1` [Compound 0230eth], the “Exp. ΔGsolv” value is -5.51 kcal/mol.
For `CBr` [Compound 0177bro], the “Exp. ΔGsolv” value is -0.82 kcal/mol.
For `C#C` [Compound 0030eth], the “Exp. ΔGsolv” value was -0.01 kcal/mol.
For `C=CCCl` [Compound 0170chl], the “Exp. ΔGsolv” value is -0.57 kcal/mol.
With `CCCBr` [Compound 0182bro], the “Exp. ΔGsolv” value is -0.56 kcal/mol.
Turning to `C1CC1` [Compound 0016cyc], the “Exp. ΔGsolv” value is listed as 0.75 kcal/mol.
For the compound `CCCC(C)C` [Compound 0012met], the “Exp. ΔGsolv” value was 2.52 kcal/mol.
For `CCCN(CC1CC1)c1c([N+](=O)[O-])cc(C(F)(F)F)cc1[N+](=O)[O-]` [test1046], the “Exp. ΔGsolv” value was -2.5 kcal/mol.
In the case of `ClC=C(Cl)Cl` [Compound 0173tri], the “Exp. ΔGsolv” value is -0.39 kcal/mol.
As to `FC(F)(F)C(F)(F)Cl` [Compound 0424clp], the “Exp. ΔGsolv” value is recorded as 2.86 kcal/mol.
On to `CC(C)[N+](=O)[O-]` [Compound 0132nit], for which the “Exp. ΔGsolv” value was -3.14 kcal/mol.
Consider `NC(=S)c1c(Cl)cccc1Cl` [Compound 0427dcl], for which the “Exp. ΔGsolv” value was -10.81 kcal/mol.
Take `CCCCCCCC` [Compound 0008noc]: the “Exp. ΔGsolv” value is listed as 2.89 kcal/mol.
Turning to `CC1=CC(=O)CC(C)(C)C1` [test1034], the “Exp. ΔGsolv” value is -5.2 kcal/mol.
In the case of `CCC[N+](=O)[O-]` [Compound 0131nit], the “Exp. ΔGsolv” value was -3.34 kcal/mol.

The series is the same for the next values; noted with them: neutral molecule.
On to `COO` [methylperoxide, reference compound], for which the ΔGsol experimental value is -5.28 kcal/mol.
